The values that follow come from patent publication US11078170B2 (Assembly Biosciences, Inc., priority 2017, dated 2021).

pEC50: −log10 of the molar value.

This test deals with HBV viral production from HepAD38 cells. Put plainly: Activity of test compounds on viral production from HepAD38 cells (viral load by qPCR of HBV core sequence in supernatant). As to conditions: Hepatitis B virus, 120 h, 5 days incubation, HBV DNA in supernatant by qPCR, top concentration 10 μM, read-out: Viral Load EC50 Activity range. It is filed as cell-based. A digest of the protocol:
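HepAD38 cells, 50,000/well in tetracycline-free 2% FBS medium, treated 5 days at 37° C. with compound from 10 μM top concentration. HBV DNA in supernatant quantified by TaqMan qPCR of core sequence against DNA standards, relative to DMSO wells; CellTiter-Glo viability read in parallel. EC50/CC50 from four-parameter logistic fit.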
For orientation: pEC50 means −log10 of the EC50, conventionally taken in molar units. On to `CN1[C@@H](C(=O)Nc2ccc(F)c(Br)c2)C[C@@H](c2ccc(F)cc2)NS1(=O)=O` [HBV-CSU-211-ISO-II, Cis-N-(3-Bromo-4-fluorophenyl)-5-(4-fluorophenyl)-2-methyl-1,2,6-thiadiazinane-3-carboxamide 1,1-dioxide], for which the pEC50 was less than 5.30. With `CN1[C@H](C(=O)Nc2ccc(F)c(Cl)c2)C[C@H](c2ncc(-c3ccc(NS(C)(=O)=O)cc3)s2)NS1(=O)=O` [HBV-CSU-179-ISO-I, Cis-N-(3-Chloro-4-fluorophenyl)-2-methyl-5-(5-(4-(methylsulfonamido)phenyl)thiazol-2-yl)-1,2,6-thiadiazinane-3-carboxamide 1,1-dioxide], the pEC50 is greater than 6.00. Regarding `CN1[C@@H](C(=O)Nc2ccc(F)c(Cl)c2)C[C@@H](c2cc(-c3ncnn3C)cs2)NS1(=O)=O` [HBV-CSU-327-ISO-II, Cis-N-(3-Chloro-4-fluorophenyl)-2-methyl-5-(4-(1-methyl-1H-1,2,4-triazol-5-yl)thiophen-2-yl)-1,2,6-thiadiazinane-3-carboxamide 1,1-dioxide], the pEC50 was 5.30 to 6.00. For `CN1C(C(=O)Nc2ccc(F)c(Cl)c2)CC(c2ccc(-c3ncnn3C)s2)NS1(=O)=O` (racemic) [HBV-CSU-323, Cis-N-(3-Chloro-4-fluorophenyl)-2-methyl-5-(5-(1-methyl-1H-1,2,4-triazol-5-yl)thiophen-2-yl)-1,2,6-thiadiazinane-3-carboxamide 1,1-dioxide], the pEC50 was greater than 6.00.

`CN1[C@@H](C(=O)Nc2ccc(F)c(Cl)c2)C[C@H](c2ccc(Br)s2)NS1(=O)=O` [HBV-CSU-114-Trans-ISO-I, (3R,5R)-5-(5-bromothiophen-2-yl)-N-(3-chloro-4-fluorophenyl)-2-methyl-1,2,6-thiadiazinane-3-carboxamide 1,1-dioxide]: the pEC50 was 5.30 to 6.00. As for `Cc1nn(C)cc1-c1ccc([C@@H]2C[C@H](C(=O)Nc3ccc(F)c(Cl)c3)N(C)S(=O)(=O)N2)s1` [HBV-CSU-313-ISO-II, Cis-N-(3-chloro-4-fluorophenyl)-5-(5-(1,3-dimethyl-1H-pyrazol-4-yl)thiophen-2-yl)-2-methyl-1,2,6-thiadiazinane-3-carboxamide 1,1-dioxide], the negative-log EC50 (pEC50) was 5.30 to 6.00. With `CCn1cc(-c2ccc(C3CC(C(=O)Nc4ccc(F)c(Cl)c4)N(C)S(=O)(=O)N3)s2)cn1` (racemic) [HBV-CSU-291, Cis-N-(3-chloro-4-fluorophenyl)-5-(5-(1-ethyl-1H-pyrazol-4-yl)thiophen-2-yl)-2-methyl-1,2,6-thiadiazinane-3-carboxamide 1,1-dioxide], the pEC50 was greater than 6.00. Turning to `Cc1nn(C)cc1-c1csc([C@@H]2C[C@H](C(=O)Nc3ccc(F)c(Cl)c3)N(C)S(=O)(=O)N2)c1` (relative stereo) [HBV-CSU-316-ISO-II, Cis-N-(3-chloro-4-fluorophenyl)-5-(4-(1,3-dimethyl-1H-pyrazol-4-yl)thiophen-2-yl)-2-methyl-1,2,6-thiadiazinane-3-carboxamide 1,1-dioxide], the pEC50 is greater than 6.00. As to `CN1[C@@H](C(=O)Nc2ccc(F)c(Cl)c2)C[C@@H](c2ncc(-c3ccc(Br)c(F)c3)s2)NS1(=O)=O` [HBV-CSU-173-ISO-II, Cis-5-(5-(4-Bromo-3-fluorophenyl)thiazol-2-yl)-N-(3-chloro-4-fluorophenyl)-2-methyl-1,2,6-thiadiazinane-3-carboxamide 1,1-dioxide], the pEC50 is less than 5.30. `[2H]C1[C@]([2H])(c2ccc(-c3cn(C([2H])([2H])[2H])cn3)s2)NS(=O)(=O)N(C)[C@]1([2H])C(=O)Nc1ccc(F)c(Cl)c1` (stereo in doubt) [HBV-CSU-376-ISO-I, Cis-N-(3-Chloro-4-fluorophenyl)-2-methyl-5-(5-(1-(methyl-d3)-1H-imidazol-4-yl)thiophen-2-yl)-1,2,6-thiadiazinane-3,4,5-d3-3-carboxamide 1,1-dioxide]: the negative logarithm of the EC50 (pEC50) is greater than 6.00. Consider `CCn1cc(-c2ccc([C@H]3C[C@@H](C(=O)Nc4ccc(F)c(Cl)c4)N(C)S(=O)(=O)N3)s2)cn1` [HBV-CSU-291-ISO-I, Cis-N-(3-chloro-4-fluorophenyl)-5-(5-(1-ethyl-1H-pyrazol-4-yl)thiophen-2-yl)-2-methyl-1,2,6-thiadiazinane-3-carboxamide 1,1-dioxide], for which the negative-log EC50 (pEC50) was greater than 6.00. Consider `CN1C(C(=O)Nc2ccc(F)c(Cl)c2)CC(c2nccs2)NS1(=O)=O` (racemic) [HBV-CSU-027, Cis-N-(3-chloro-4-fluorophenyl)-2-methyl-5-(thiazol-2-yl)-1,2,6-thiadiazinane-3-carboxamide 1,1-dioxide], for which the pEC50 is greater than 6.00. Regarding `CN1[C@@H](C(=O)Nc2ccc(F)c(Cl)c2)C[C@@H](c2ncc(-c3cccnc3)s2)NS1(=O)=O` [HBV-CSU-175-ISO-II, Cis-N-(3-Chloro-4-fluorophenyl)-2-methyl-5-(5-(pyridin-3-yl)thiazol-2-yl)-1,2,6-thiadiazinane-3-carboxamide 1,1-dioxide], the pEC50 is greater than 6.00.

Take `CC(C)OCCN1C(C(=O)Nc2ccc(F)c(Cl)c2)CC(c2nccs2)NS1(=O)=O` (stereo not drawn) [HBV-CSU-143, Cis-N-(3-Chloro-4-fluorophenyl)-2-(2-isopropoxyethyl)-5-(thiazol-2-yl)-1,2,6-thiadiazinane-3-carboxamide 1,1-dioxide]: the pEC50 is greater than 6.00. In the case of `O=C(Nc1ccc(F)c(Cl)c1)C1CC(c2nccs2)NS(=O)(=O)N1CCCN1CCOCC1` (stereo not drawn) [HBV-CSU-103, Cis-N-(3-Chloro-4-fluorophenyl)-2-(3-morpholinopropyl)-5-(thiazol-2-yl)-1,2,6-thiadiazinane-3-carboxamide 1,1-dioxide], the pEC50 was less than 5.30. With `CN1[C@H](C(=O)Nc2ccc(F)c(Cl)c2)C[C@@H](c2ccc(Br)s2)NS1(=O)=O` (racemic) [HBV-CSU-114-Trans (Rac), Trans-5-(5-bromothiophen-2-yl)-N-(3-chloro-4-fluorophenyl)-2-methyl-1,2,6-thiadiazinane-3-carboxamide 1,1-dioxide] the figure was less than 5.30; with `CN1[C@H](C(=O)Nc2ccc(F)c(Cl)c2)C[C@H](c2ccc(-c3ncnn3C)s2)NS1(=O)=O` [HBV-CSU-323-ISO-I, Cis-N-(3-Chloro-4-fluorophenyl)-2-methyl-5-(5-(1-methyl-1H-1,2,4-triazol-5-yl)thiophen-2-yl)-1,2,6-thiadiazinane-3-carboxamide 1,1-dioxide], greater than 6.00.

In the case of `O=C(Nc1ccc(F)c(Cl)c1)C1CC(c2nccs2)NS(=O)(=O)N1` (stereo not drawn) [HBV-CSU-096, Cis-N-(3-Chloro-4-fluorophenyl)-5-(thiazol-2-yl)-1,2,6-thiadiazinane-3-carboxamide 1,1-dioxide], the pEC50 was 5.30 to 6.00.

Turning to `[2H]C1[C@]([2H])(c2ccc(Br)s2)NS(=O)(=O)N(C([2H])([2H])[2H])[C@]1([2H])C(=O)Nc1ccc(F)c(Cl)c1` (stereo in doubt) [HBV-CSU-372-ISO-I, Cis-5-(5-bromothiophen-2-yl)-N-(3-chloro-4-fluorophenyl)-2-(methyl-d3)-1,2,6-thiadiazinane-3,4,5-d3-3-carboxamide 1,1-dioxide], the pEC50 is greater than 6.00.

Take `CN1[C@@H](C(=O)Nc2ccc(F)c(Cl)c2)C[C@@H](c2ncc(-c3cn[nH]c3)s2)NS1(=O)=O` [HBV-CSU-254-ISO-II, Cis-5-(5-(1H-pyrazol-4-yl)thiazol-2-yl)-N-(3-chloro-4-fluorophenyl)-2-methyl-1,2,6-thiadiazinane-3-carboxamide 1,1-dioxide]: the pEC50 was 5.30 to 6.00. Regarding `CN1[C@H](C(=O)Nc2ccc(F)c(Cl)c2)C[C@H](c2ccc(-c3cccs3)s2)NS1(=O)=O` [HBV-CSU-162-ISO-I, Cis-N-5-([2,2′-bithiophen]-5-yl)-N-(3-chloro-4-fluorophenyl)-2-methyl-1,2,6-thiadiazinane-3-carboxamide 1,1-dioxide], the negative logarithm of the EC50 (pEC50) was greater than 6.00. `C[C@H]1C[C@@H](C(=O)Nc2ccc(F)c(Cl)c2)N(C)S(=O)(=O)N1` [HBV-CSU-050-ISO-I, Cis-N-(3-chloro-4-fluorophenyl)-2,5-dimethyl-1,2,6-thiadiazinane-3-carboxamide 1,1-dioxide]: the pEC50 is 5.30 to 6.00. As for `CN1[C@H](C(=O)Nc2ccc(F)c(Cl)c2)C[C@H](c2ccc3c(c2)ncn3C)NS1(=O)=O` [HBV-CSU-360-ISO-I, Cis-N-(3-chloro-4-fluorophenyl)-2-methyl-5-(1-methyl-1H-benzo[d]imidazol-5-yl)-1,2,6-thiadiazinane-3-carboxamide 1,1-dioxide], the pEC50 was 5.30 to 6.00. With `CN1[C@@H](C(=O)Nc2ccc(F)c(Br)c2)C[C@@H](c2nccs2)NS1(=O)=O` [HBV-CSU-060-ISO-I, Cis-N-(3-bromo-4-fluorophenyl)-2-methyl-5-(thiazol-2-yl)-1,2,6-thiadiazinane-3-carboxamide 1,1-dioxide] the figure was less than 5.30; with `CN1[C@@H](C(=O)Nc2ccc(F)c(Cl)c2)C[C@@H](c2cccc(Cl)c2)NS1(=O)=O` [HBV-CSU-261-ISO-II, Cis-N-(3-Chloro-4-fluorophenyl)-5-(3-chlorophenyl)-2-methyl-1,2,6-thiadiazinane-3-carboxamide 1,1-dioxide], less than 5.30; with `CN1[C@@H](C(=O)Nc2ccc(F)c(Cl)c2)C[C@@H](c2ccc3c(c2)ncn3C)NS1(=O)=O` (relative stereo) [HBV-CSU-360-ISO-II, Cis-N-(3-chloro-4-fluorophenyl)-2-methyl-5-(1-methyl-1H-benzo[d]imidazol-5-yl)-1,2,6-thiadiazinane-3-carboxamide 1,1-dioxide], greater than 6.00. Consider `CN1[C@@H](C(=O)Nc2ccc(F)c(Cl)c2)C[C@@H](c2cc(-c3ccc(C#N)c(F)c3)cs2)NS1(=O)=O` [HBV-CSU-164-ISO-II, Cis-N-(3-chloro-4-fluorophenyl)-5-(4-(4-cyano-3-fluorophenyl)thiophen-2-yl)-2-methyl-1,2,6-thiadiazinane-3-carboxamide 1,1-dioxide], for which the negative-log EC50 (pEC50) is less than 5.30.
